Assay results from ChEMBL document CHEMBL5500339, “4-Hydroxy-2-pyridone derivatives with antitumor activity produced by mangrove endophytic fungus Talaromyces sp. CY-3” (Eur J Med Chem, 2024).

Assays:
A549 [1] = test: Cytotoxicity against human A549 cells assessed as reduction in cell viability incubated for 48 hrs by MTT assay; type: functional, cell-based; conditions: A549, 48 h
MDA-MB-231 = test: Cytotoxicity against human MDA-MB-231 cells assessed as reduction in cell viability incubated for 48 hrs by MTT assay; type: functional, cell-based; conditions: MDA-MB-231, 48 h
MDA-MB-435 = test: Cytotoxicity against human MDA-MB-435 cells assessed as reduction in cell viability incubated for 48 hrs by MTT assay; type: functional, cell-based; conditions: MDA-MB-435, 48 h
SNB-19 = test: Cytotoxicity against human SNB-19 cells assessed as reduction in cell viability incubated for 48 hrs by MTT assay; type: functional, cell-based; conditions: SNB-19, 48 h
HCT-116 = test: Cytotoxicity against human HCT-116 cells assessed as reduction in cell viability incubated for 48 hrs by MTT assay; type: functional, cell-based; conditions: HCT-116, 48 h
PC-3 = test: Cytotoxicity against human PC-3 cells assessed as reduction in cell viability incubated for 48 hrs by MTT assay; type: functional, cell-based; conditions: PC-3, 48 h
A549 [2] = test: Induction of cell cycle arrest in human A549 cells assessed as accumulation of cells at G1/G0 phase at 2 uM incubated for 24 hrs by flow cytometric analysis (reference value: 51.49 %); type: functional
A549 [3] = test: Induction of cell cycle arrest in human A549 cells assessed as accumulation of cells at S phase at 2 uM incubated for 24 hrs by flow cytometric analysis (reference value: 31.31 %); type: functional
A549 [4] = test: Induction of cell cycle arrest in human A549 cells assessed as accumulation of cells at G2/M phase at 2 uM incubated for 24 hrs by flow cytometric analysis (reference value: 17.2 %); type: functional
NCI-H1703 [5] = test: Induction of cell cycle arrest in human NCI-H1703 cells assessed as accumulation of cells at G1/G0 phase at 2 uM incubated for 24 hrs by flow cytometric analysis (reference value: 42.06 %); type: functional
NCI-H1703 [6] = test: Induction of cell cycle arrest in human NCI-H1703 cells assessed as accumulation of cells at S phase at 2 uM incubated for 24 hrs by flow cytometric analysis (reference value: 28.06 %); type: functional
NCI-H1703 [7] = test: Induction of cell cycle arrest in human NCI-H1703 cells assessed as accumulation of cells at G2/M phase at 2 uM incubated for 24 hrs by flow cytometric analysis (reference value: 29.88 %); type: functional

Compound | IC50 (A549 [1]) | IC50 (MDA-MB-231) | IC50 (MDA-MB-435) | IC50 (SNB-19) | IC50 (HCT-116) | IC50 (PC-3) | Activity (A549 [2]) | Activity (A549 [3]) | Activity (A549 [4]) | Activity (NCI-H1703 [5]) | Activity (NCI-H1703 [6]) | Activity (NCI-H1703 [7])
CC[C@H](C)C[C@@H](C)/C=C(\C)[C@@H]1O[C@H](c2c(O)c(-c3ccc(O)cc3)cn(C)c2=O)CC[C@H]1C | 14.9 µM | 14.9 µM | 9.41 µM | 9.04 µM | 7.74 µM | 43 µM | – | – | – | – | – | –
C/C=C/[C@@H]1Oc2c(-c3ccccc3)cn(O)c(=O)c2[C@@H]2[C@H]1CCC[C@H]2C | 32.7 µM | 20.1 µM | 20.3 µM | 20.3 µM | 14.4 µM | 49.1 µM | – | – | – | – | – | –
CC[C@H](C)C[C@@H](C)/C=C(\C)[C@@H]1O[C@H](c2c(O)c(-c3ccc(O)cc3)c[nH]c2=O)CC[C@H]1C | 3.46 µM | 4.4 µM | 10 µM | > 50 µM | 2.51 µM | 6.65 µM | – | – | – | – | – | –
CC[C@H](C)C[C@@H](C)/C=C(\C)[C@@H]1O[C@H](c2c(O)c(-c3ccccc3)cn(C)c2=O)CC[C@H]1C | 9.51 µM | 7.84 µM | 24.6 µM | 5.76 µM | 2.45 µM | 16.3 µM | – | – | – | – | – | –
CC[C@H](C)C[C@@H](C)/C=C(\C)[C@@H]1O[C@H](c2c(O)c(-c3ccc(O)cc3)cn(C)c2=O)CC=C1C | 48.9 µM | 43.1 µM | 34.9 µM | 40.4 µM | 29.2 µM | > 50 µM | – | – | – | – | – | –
C/C=C/[C@@H]1Oc2c(-c3ccccc3)c[nH]c(=O)c2[C@@H]2[C@H]1CCC[C@H]2C | > 50 µM | > 50 µM | 29.5 µM | 13.4 µM | 16.8 µM | 36.1 µM | – | – | – | – | – | –
CC[C@H](C)C[C@@H](C)/C=C(\C)[C@H]1O[C@@H](c2c(O)c(-c3ccccc3)c[nH]c2=O)CC=C1C | 3.81 µM | 5.28 µM | 9.02 µM | 6.76 µM | 1.76 µM | 2.18 µM | – | – | – | – | – | –
CC[C@H](C)C[C@@H](C)/C=C(\C)[C@@H]1O[C@H](c2c(O)c(-c3ccccc3)c[nH]c2=O)CC[C@H]1C | 3.89 µM | 5 µM | 7.29 µM | > 50 µM | > 50 µM | 11.4 µM | – | – | – | – | – | –
CC[C@H](C)C[C@@H](C)/C=C(\C)[C@@H]1O[C@H](c2c(O)c(-c3ccc(O)cc3)cn(C)c2=O)CC[C@H]1CO | 8.41 µM | > 50 µM | 2.3 µM | > 50 µM | 10.5 µM | > 50 µM | – | – | – | – | – | –
CC[C@H](C)C[C@@H](C)/C=C(\C)[C@@H]1O[C@H](c2c(O)c(-c3ccccc3O)cn(C)c2=O)CC[C@H]1C | > 50 µM | 12.7 µM | 6.95 µM | > 50 µM | 7.57 µM | 18.6 µM | – | – | – | – | – | –
CC(=O)c1c(C)c2cnc(Nc3ccc(N4CCNCC4)cn3)nc2n(C2CCCC2)c1=O [PALBOCICLIB] | – | – | – | – | – | – | 89.43% | 5.87% | 4.7% | 72.21% | 6.88% | 20.91%
CC[C@H](C)C[C@@H](C)/C=C(\C)[C@@H]1O[C@H](c2c(O)c(-c3ccc(O)cc3)cn(C)c2=O)CC[C@]1(C)O | 11.1 µM | 8.49 µM | 6.15 µM | > 50 µM | 10.5 µM | 8.1 µM | – | – | – | – | – | –
